Measured values: patent US6515001B2, “IL-8 receptor ligands-drugs for inflammatory and autoimmune diseases” (Chemokine Therapeutic Corporation, priority 2001, dated 2003)

How the values were obtained:
[1] = molecular target: IL-8 receptors (CXCR-1 and CXCR-2); experiment: Inhibition of binding of I125 labeled IL-8 to IL-8 receptors; conditions: I125 labeled IL-8 as competitor; read-out: IC50, inhibition of binding of IL-8 to CXCR-1 and/or CXCR-2
Experimental: This example discloses the ability of compounds of the invention, such as benzopyrone derivatives, such as CTCM192 (1), to inhibit binding of IL-8 to IL-8 receptors (CXCR-1 and CXCR-2). The binding studies were conducted using I^125 labeled IL-8 as competitor.

[2] = tested on: IL-8-induced [Ca2+]i mobilization in THP1 cells; experiment: Inhibition of IL-8-induced intracellular [Ca2+]i mobilization in THP1 cells; format: cell-based; conditions: Homo sapiens, THP-1; Fura-2,AM loaded THP1 cells, incubated 60 min prior to induction by 12 nM IL-8
Experimental: A rapid, transient rise in the free cytosolic Ca^2+ concentration ([Ca^2+])i) is one of the events associated with the Chemokine mediated induction of the associated receptors and is assumed to be involved in many of the subsequent cellular reactions. Both Ca^2+ release from intracellular stores and Ca^2+ influx from the extracellular space contribute to the rise in [Ca^2+]i. […] Fura-2,AM loaded THP1 cells were incubated with CTCM192 for 60 min prior to induction of [Ca^2+]i mobilization by 12 nM IL-8. Results illustrate the effect of CTCM192 (1) on IL-8-induced Ca^2+ mobilization.
In accordance with this aspect of the invention, the benzopyrone derivative, Geetokine, such as compound 1 or corresponding salts may be used for the treatment of a wide range of inflammatory diseases such as gout, arthritis osteoarthritis, rheumatoid arthritis, and ARDS.

IC50 [1]: 45 µM | IC50 [2]: 0.34 µM
Compound: Cc1csc(-c2coc3cc(OC(=O)C(Cc4ccccc4)NC(=O)OCc4ccccc4)cc(C)c3c2=O)n1 (centres unmarked) [Compound 1, [7-[5-methylbenzopyrone-5′(3′-methyl)-thiazole]-phenylalanine-benyl ester]]
